Experimental data published in patent publication US20260183407A1, “DYRK/CLK PROTACS AND USES THEREOF” (Arizona Board of Regents on Behalf of the University of …, priority 2022, published 2026).

Columns and labels:
DYRK1B [1] = molecular target: T1, DYRK1B (Homo sapiens, UniProt Q9Y463); assay: KdELECT kinase binding assay (Eurofins), DYRK1B; settings: 11-point 3-fold dilution series, qPCR readout; read-out: Binding Affinity (Kd) DYRK1B
T1 construct: purchased Eurofins; host or cells: E. coli BL21-derived (T7 phage display) or HEK-293
T1 sequence (Q9Y463 whole entry, species assumed): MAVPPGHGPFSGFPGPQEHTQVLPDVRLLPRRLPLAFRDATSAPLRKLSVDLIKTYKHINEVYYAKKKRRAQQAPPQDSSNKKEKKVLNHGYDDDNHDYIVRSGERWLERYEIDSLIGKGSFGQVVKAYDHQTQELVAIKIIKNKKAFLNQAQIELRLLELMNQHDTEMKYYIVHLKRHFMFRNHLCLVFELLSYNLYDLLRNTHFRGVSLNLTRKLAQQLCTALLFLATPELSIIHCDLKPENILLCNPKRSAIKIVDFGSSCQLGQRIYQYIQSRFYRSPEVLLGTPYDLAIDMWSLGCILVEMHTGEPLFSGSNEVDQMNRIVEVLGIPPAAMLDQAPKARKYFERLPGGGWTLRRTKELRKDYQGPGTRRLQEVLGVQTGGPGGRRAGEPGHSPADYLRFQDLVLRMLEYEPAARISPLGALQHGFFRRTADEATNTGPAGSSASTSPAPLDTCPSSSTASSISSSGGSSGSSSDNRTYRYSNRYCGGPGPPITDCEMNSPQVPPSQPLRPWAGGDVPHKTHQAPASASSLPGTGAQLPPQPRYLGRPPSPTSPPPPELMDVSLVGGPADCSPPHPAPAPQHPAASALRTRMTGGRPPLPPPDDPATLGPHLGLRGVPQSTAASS
Protocol: (§1) KDs were obtained from Eurofins who used the following procedure: Kinase tagged T7 phase strains were prepared in an E. coli host derived from the BL21 strain. E. coli were grown to log-phase and infected with T7 phage and incubated with shaking at 32° C. until lysis. The lysates were centrifuged and filtered to remove cell debris. The remaining kinases were produced in HEK-293 cells and subsequently tagged with DNA for qPCR detection. Streptavidin-coated magnetic beads were treated with biotinylated small molecule ligands for 30 minutes at room temperature to generate affinity resins for kinase assays. The liganded beads were blocked with excess biotin and washed with locking buffer (SeaBlock (Pierce), 1% BSA, 0.05% Tween 20, 1 mM DTT) to remove unbound ligand and to reduce non-specific binding. Binding reactions were assembled by combining kinases, liganded affinity beads, and test compounds in 1× binding buffer (20% SeaBlock, 0.17× PBS, 0.05% Tween 20, 6 mM DTT). Test compounds were prepared as 111X stocks in 100% DMSO. Kds were determined using a 11-poin 3-fold compound dilution series with three DMSO control points. All compounds for Kd measurements are distributed by acoustic transfer (non-contact dispensing) in 100% DMSO. The compounds were then diluted directly into the assays such that the final concentration of DMSO was 0.9%. All reactions performed in polypropylene 384-well plate. Each was a final volume of 0.02 mL. The assay plates were incubated at room temperature with shaking for 1 hour and the affinity beads were washed with wash buffer (1×PBS, 0.05% Tween 20). The beads were then resuspended in elution buffer (1X PBS, 0.05% Tween 20, 0.5 µM nonbiotinylated affinity ligand) and incubated at room temperature with shaking for 30 minutes. The kinase concentration in the eluates was measured by qPCR.

DYRK1B [2] = molecular target: T1, DYRK1B; assay: HiBiT split luciferase assay of targeted degradation of DYRK1B in Flp-In T-REx 293 cells; type: cell-based; settings: 300 nM compound, 24 h, HiBiT-tagged DYRK1B in Flp-In T-REx 293 cells, normalized to vehicle; read-out: Relative Degradation at 300 nM DYRK1B
Description: (§2) The Flp-In T-REx 293 Cell Line and the pcDNA5/FRT/TO vector (Invitrogen) were used to generate stable cell clones for tetracyclin-inducible expression of DYRK1A and DYRK1B. These cells contain a single stably integrated Flp recognition target (FRT) site, which allows for site-specific integration of the expression cassette by the Flp (Flippase) recombinase. DYRK1 constructs were designed to contain a C-terminal HiBiT tag for quantitative detection of HiBiT-tagged proteins in cellular lysates with the help a split luciferase assay (Nano-Glo HiBiT Lytic Detection System, Promega). To monitor the targeted degradation of DYRK1A or DYRK1B, cells were seeded in 96-well plates (10,000 cells/per well) and treated with doxycyclineinal concentration 2 μg/ml) to induce DYRK1 expression. Compounds with presumed PROTAC activity were administered 24 h after seeding. After further incubation for 24 h, cells were grossly and microscopically inspected for overt toxicity. Cells were lysed in 100 μL ice-cold passive lysis buffer (PLB, Promega) by orbital shaking (30 min on ice) before lysates were centrifuged in PCR tube (20 min 20,000 g, RT). A 10 μl aliquot of the supernatant was subjected to the HiBiT lytic assay. Luminescence was quantified in an Orion Microplate luminometer (Berthold Detection System, Germany). All compounds were tested in duplicate or triplicate wells (technical replicates) and at least two independent experiments. Relative degradation was calculated by normalization to vehicle-treated control samples.

DYRK1A [3] = molecular target: T2, DYRK1A (Homo sapiens, UniProt Q13627); assay: HiBiT split luciferase assay of targeted degradation of DYRK1A in Flp-In T-REx 293 cells; type: cell-based; settings: 300 nM compound, 24 h, HiBiT-tagged DYRK1A in Flp-In T-REx 293 cells, normalized to vehicle; read-out: Relative Degradation at 300 nM DYRK1A
T2 construct: purchased Eurofins; host or cells: E. coli BL21-derived (T7 phage display) or HEK-293
Description: as §2

DYRK1A [4] = molecular target: T2, DYRK1A; assay: KdELECT kinase binding assay (Eurofins), DYRK1A; settings: 11-point 3-fold dilution series, qPCR readout; read-out: Binding Affinity (Kd) DYRK1A
Protocol: as §1

| SMILES | Kd (DYRK1B [1]) [nM] | inhibition at 0.3 µM (DYRK1B [2]) [%] | inhibition at 0.3 µM (DYRK1A [3]) [%] | Kd (DYRK1A [4]) [nM] |
| --- | --- | --- | --- | --- |
| Cc1nc2ccc(-c3ccnc(N)c3)nc2n1-c1ccc(N2CCN(CC#Cc3ccc(N4CCC(C(=O)N5CCC(n6cc(CNc7cccc8c7C(=O)N(C7CCC(=O)NC7=O)C8=O)cn6)CC5)CC4)nc3)CC2)c(F)c1 (stereo not shown) [Compound 18, 4-(((1-(1-(1-(5-(3-(4-(4-(5-(2-aminopyridin-4-yl)-2-methyl-3H-imidazo[4,5-b]pyridin-3-yl)-2-fluorophenyl)piperazin-1-yl)prop-1-yn-1-yl)pyridin-2-yl)piperidine-4-carbonyl)piperidin-4-yl)-1H-pyrazol-4-yl)methyl)amino)-2-(2,6-dioxopiperidin-3-yl)isoindoline-1,3-dione] | 10 to 100 | > 50 | > 60 | < 10 |
| Cc1nc2ccc(-c3ccnc(N)c3)nc2n1-c1ccc(N2CCN(CCC#Cc3ccc(N4CCC(C(=O)N5CCC(n6cc(CNc7cccc8c7C(=O)N(C7CCC(=O)NC7=O)C8=O)cn6)CC5)CC4)nc3)CC2)c(F)c1 (stereo not shown) [Compound 19, 4-(((1-(1-(1-(5-(4-(4-(4-(5-(2-aminopyridin-4-yl)-2-methyl-3H-imidazo[4,5-b]pyridin-3-yl)-2-fluorophenyl)piperazin-1-yl)but-1-yn-1-yl)pyridin-2-yl)piperidine-4-carbonyl)piperidin-4-yl)-1H-pyrazol-4-yl)methyl)amino)-2-(2,6-dioxopiperidin-3-yl)isoindoline-1,3-dione] | 10 to 100 | > 50 | > 60 | 10 to 100 |
| Cc1nc2ccc(-c3ccnc(N)c3)nc2n1-c1ccc(N2CCN(CC#Cc3cncc(N4CCC(C(=O)N5CCC(n6cc(CNc7cccc8c7C(=O)N(C7CCC(=O)NC7=O)C8=O)cn6)CC5)CC4)n3)CC2)c(F)c1 (stereo not shown) [Compound 32, 4-(((1-(1-(1-(6-(3-(4-(4-(5-(2-aminopyridin-4-yl)-2-methyl-3H-imidazo[4,5-b]pyridin-3-yl)-2-fluorophenyl)piperazin-1-yl)prop-1-yn-1-yl)pyrazin-2-yl)piperidine-4-carbonyl)piperidin-4-yl)-1H-pyrazol-4-yl)methyl)amino)-2-(2,6-dioxopiperidin-3-yl)isoindoline-1,3-dione] | 10 to 100 | > 50 | > 60 | 10 to 100 |
| Cc1nc2ccc(-c3ccnc(N)c3)nc2n1-c1ccc(N2C3CCC2CN(CC#Cc2ccc(N4CCC(C(=O)N5CCC(n6cc(CNc7cccc8c7C(=O)N(C7CCC(=O)NC7=O)C8=O)cn6)CC5)CC4)nc2)C3)c(F)c1 (stereo not shown) [Compound 21, 4-(((1-(1-(1-(5-(3-(8-(4-(5-(2-aminopyridin-4-yl)-2-methyl-3H-imidazo[4,5-b]pyridin-3-yl)-2-fluorophenyl)-3,8-diazabicyclo[3.2.1]octan-3-yl)prop-1-yn-1-yl)pyridin-2-yl)piperidine-4-carbonyl)piperidin-4-yl)-1H-pyrazol-4-yl)methyl)amino)-2-(2,6-dioxopiperidin-3-yl)isoindoline-1,3-dione] | 100 to 1000 | < 30 | 30 to 60 | 10 to 100 |
| Cc1ncsc1-c1ccc(CNC(=O)[C@@H]2C[C@@H](O)CN2C(=O)[C@@H](NC(=O)CCOCCOCCN2CCN(c3ccc(-n4c(C)nc5ccc(-c6ccnc(N)c6)nc54)cc3F)CC2)C(C)(C)C)cc1 [Compound 1, (2S,4R)-1-((S)-2-(3-(2-(2-(4-(4-(5-(2-aminopyridin-4-yl)-2-methyl-3H-imidazo[4,5-b]pyridin-3-yl)-2-fluorophenyl)piperazin-1-yl)ethoxy)ethoxy)propanamido)-3,3-dimethylbutanoyl)-4-hydroxy-N-(4-(4-methylthiazol-5-yl)benzyl)pyrrolidine-2-carboxamide] | < 10 | < 30 | < 30 | < 10 |
| Cc1ncsc1-c1ccc(CNC(=O)[C@@H]2C[C@@H](O)CN2C(=O)[C@@H](NC(=O)CCOCCOCCOCCOCCN2CCN(c3ccc(-n4c(C)nc5ccc(-c6ccnc(N)c6)nc54)cc3F)CC2)C(C)(C)C)cc1 [Compound 3, (2S,4R)-1-((S)-1-(4-(4-(5-(2-aminopyridin-4-yl)-2-methyl-3H-imidazo[4,5-b]pyridin-3-yl)-2-fluorophenyl)piperazin-1-yl)-17-(tert-butyl)-15-oxo-3,6,9,12-tetraoxa-16-azaoctadecan-18-oyl)-4-hydroxy-N-(4-(4-methylthiazol-5-yl)benzyl)pyrrolidine-2-carboxamide] | < 10 | < 30 | < 30 | < 10 |
| Cc1nc2ccc(-c3ccnc(N)c3)nc2n1-c1cc(F)c(N2CCN(CC#Cc3ccc(N4CCC(C(=O)N5CCC(n6cc(CNc7cccc8c7C(=O)N(C7CCC(=O)NC7=O)C8=O)cn6)CC5)CC4)nc3)CC2)c(F)c1 (stereo not shown) [Compound 23, 4-(((1-(1-(1-(5-(3-(4-(4-(5-(2-aminopyridin-4-yl)-2-methyl-3H-imidazo[4,5-b]pyridin-3-yl)-2,6-difluorophenyl)piperazin-1-yl)prop-1-yn-1-yl)pyridin-2-yl)piperidine-4-carbonyl)piperidin-4-yl)-1H-pyrazol-4-yl)methyl)amino)-2-(2,6-dioxopiperidin-3-yl)isoindoline-1,3-dione] | < 10 | > 50 | > 60 | < 10 |
| Cc1nc2ccc(-c3ccnc(N)c3)nc2n1-c1ccc(N2CCN(CCOCCOCCOCCOCCNc3cccc4c3C(=O)N(C3CCC(=O)NC3=O)C4=O)CC2)c(F)c1 (stereo not shown) [Compound 7, 4-((14-(4-(4-(5-(2-aminopyridin-4-yl)-2-methyl-3H-imidazo[4,5-b]pyridin-3-yl)-2-fluorophenyl)piperazin-1-yl)-3,6,9,12-tetraoxatetradecyl)amino)-2-(2,6-dioxopiperidin-3-yl)isoindoline-1,3-dione, N,N-Diisopropylethylamine] | < 10 | 30 to 50 | 30 to 60 | < 10 |
| Cc1nc2ccc(-c3ccnc(N)c3)nc2n1-c1ccc(CN2CCN(CC#Cc3ccc(N4CCC(C(=O)N5CCC(n6cc(CNc7cccc8c7C(=O)N(C7CCC(=O)NC7=O)C8=O)cn6)CC5)CC4)nc3)CC2)cc1 (stereo not shown) [Compound 25, 4-(((1-(1-(1-(5-(3-(4-(4-(5-(2-aminopyridin-4-yl)-2-methyl-3H-imidazo[4,5-b]pyridin-3-yl)benzyl)piperazin-1-yl)prop-1-yn-1-yl)pyridin-2-yl)piperidine-4-carbonyl)piperidin-4-yl)-1H-pyrazol-4-yl)methyl)amino)-2-(2,6-dioxopiperidin-3-yl)isoindoline-1,3-dione] | < 10 | 30 to 50 | > 60 | < 10 |
| Cc1nc2ccc(-c3ccnc(N)c3)nc2n1-c1ccc(N2CCN(CCOCCOCCNc3cccc4c3C(=O)N(C3CCC(=O)NC3=O)C4=O)CC2)c(F)c1 (stereo not shown) [Compound 5, 4-((2-(2-(2-(4-(4-(5-(2-aminopyridin-4-yl)-2-methyl-3H-imidazo[4,5-b]pyridin-3-yl)-2-fluorophenyl)piperazin-1-yl)ethoxy)ethoxy)ethyl)amino)-2-(2,6-dioxopiperidin-3-yl)isoindoline-1,3-dione] | < 10 | < 30 | 30 to 60 | < 10 |
